From ChEMBL document CHEMBL3621142, “Discovery and Evaluation of Clinical Candidate AZD3759, a Potent, Oral Active, Central Nervous System-Penetrant, Epidermal Growth Factor Receptor Tyrosine Kinase Inhibitor” (J Med Chem, 2015)
Active and inactive are the calls of the source. The calls are words filed in the database; no cut-off is given here.

Assays:
[1] = Antiproliferative against human H3255 cells expressing EGFR L858R mutant after 72 hrs by MTS assay; format: functional, cell-based; conditions: NCI-H3255, 72 h
Cytochrome P450 2C8 = Cytochrome P450 2C8 (Homo sapiens, UniProt P10632); assay: Inhibition of CYP2C8 (unknown origin); format: ADME
Cytochrome P450 2C9 = Cytochrome P450 2C9 (Homo sapiens, UniProt P11712); assay: Inhibition of CYP2C9 (unknown origin); format: ADME
[2] = Cmax in beagle dog at 2 mg/kg, po; format: ADME, organism-based, Canis lupus familiaris; parameters: dose 2 mg/kg, route oral; conditions: in vivo
D(2) dopamine receptor = D(2) dopamine receptor (Homo sapiens, UniProt P14416); assay: Inhibition of recombinant D2 receptor (unknown origin)
[3] = Cmax in Han Wistar rat at 2 mg/kg, po at 1 hr; format: ADME, organism-based; parameters: dose 2 mg/kg, route oral; conditions: in vivo
[4] = AUC (0 to 7 hrs) in Han Wistar rat CSF at 2 mg/kg, po by LC-MS/MS analysis; format: ADME, organism-based, Cerebrospinal fluid; parameters: time < 7 hr, dose 2 mg/kg, route oral; conditions: Han Wistar, CSF
Cytochrome P450 2D6 = Cytochrome P450 2D6 (Homo sapiens, UniProt P10635); assay: Inhibition of CYP2D6 (unknown origin); format: ADME
PC-9 [5] = assay: Antitumor activity against human PC9 cells expressing EGFR exon19 deletion mutant xenografted in mouse measured after 4 weeks; format: functional, cell-based
[6] = Ratio of fraction unbound in brain to plasma of cynomolgus monkey at 150 MBq, iv by positron emission tomography; format: ADME, organism-based, Macaca fascicularis
[7] = AUC (0 to 7 hrs) in Han Wistar rat blood at 2 mg/kg, po by LC-MS/MS analysis; format: ADME, organism-based; parameters: dose 2 mg/kg, time < 7 hr, route oral; conditions: Han Wistar, blood
[8] = Antitumor activity against human PC9 cells expressing EGFR exon19 deletion mutant xenografted in mouse assessed as tumor growth inhibition at 7.5 mg/kg, qd measured after 4 weeks; format: functional; conditions: PC-9, 672 h
[9] = Oral bioavailability in beagle dog at 2 mg/kg; format: ADME, organism-based, Canis lupus familiaris; conditions: in vivo
[10] = target: Vascular endothelial growth factor receptor 1 (Homo sapiens) (UniProt P17948); assay: Inhibition of recombinant Flt (unknown origin) at 1 uM after 40 mins by scintillation counting analysis in presence of [gamma33P]-ATP
[11] = target: T1, Vascular endothelial growth factor receptor 2 (Homo sapiens, UniProt P35968); assay: Inhibition of recombinant KDR (unknown origin) at 1 uM after 40 mins by scintillation counting analysis in presence of [gamma33P]-ATP
T1 sequence (P35968 whole entry): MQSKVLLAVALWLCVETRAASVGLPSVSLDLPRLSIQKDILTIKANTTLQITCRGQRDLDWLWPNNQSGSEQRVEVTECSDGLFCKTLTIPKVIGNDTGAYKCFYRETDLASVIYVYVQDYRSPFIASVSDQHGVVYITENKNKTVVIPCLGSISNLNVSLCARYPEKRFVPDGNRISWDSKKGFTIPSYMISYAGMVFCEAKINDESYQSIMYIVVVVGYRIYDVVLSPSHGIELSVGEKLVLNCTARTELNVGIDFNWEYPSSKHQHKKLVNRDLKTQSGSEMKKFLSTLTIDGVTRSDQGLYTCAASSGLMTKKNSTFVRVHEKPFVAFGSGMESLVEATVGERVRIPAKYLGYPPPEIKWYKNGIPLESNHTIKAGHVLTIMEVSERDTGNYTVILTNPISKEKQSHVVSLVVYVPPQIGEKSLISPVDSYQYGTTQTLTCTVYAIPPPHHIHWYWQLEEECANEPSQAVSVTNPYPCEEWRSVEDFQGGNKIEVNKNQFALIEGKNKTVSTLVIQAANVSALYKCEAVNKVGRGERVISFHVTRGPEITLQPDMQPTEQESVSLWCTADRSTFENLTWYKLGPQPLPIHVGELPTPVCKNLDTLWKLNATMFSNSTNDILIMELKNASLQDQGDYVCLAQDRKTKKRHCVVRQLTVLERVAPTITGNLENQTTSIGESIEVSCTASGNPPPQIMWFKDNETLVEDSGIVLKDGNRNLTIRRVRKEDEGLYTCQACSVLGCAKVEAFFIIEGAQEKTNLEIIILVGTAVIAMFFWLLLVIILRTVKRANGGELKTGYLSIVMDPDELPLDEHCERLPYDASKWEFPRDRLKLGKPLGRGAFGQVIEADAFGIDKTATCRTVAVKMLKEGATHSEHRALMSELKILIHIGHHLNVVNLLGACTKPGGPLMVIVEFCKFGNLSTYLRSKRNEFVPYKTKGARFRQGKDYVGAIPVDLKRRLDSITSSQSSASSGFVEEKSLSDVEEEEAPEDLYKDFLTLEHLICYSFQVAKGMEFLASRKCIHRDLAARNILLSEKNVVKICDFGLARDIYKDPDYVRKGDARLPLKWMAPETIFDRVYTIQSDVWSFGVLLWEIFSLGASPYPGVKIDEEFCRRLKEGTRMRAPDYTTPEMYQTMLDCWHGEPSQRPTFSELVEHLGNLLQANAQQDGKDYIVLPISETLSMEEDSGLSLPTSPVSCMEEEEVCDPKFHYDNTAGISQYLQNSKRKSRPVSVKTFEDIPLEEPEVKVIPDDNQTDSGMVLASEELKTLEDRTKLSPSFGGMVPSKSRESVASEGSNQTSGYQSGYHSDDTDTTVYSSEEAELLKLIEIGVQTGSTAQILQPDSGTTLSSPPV

[12] = Elimination half life in beagle dog at 1 mg/kg, iv; format: ADME, organism-based, Canis lupus familiaris; conditions: in vivo, read-out: beta t1/2 (converted)
Hepatocyte = assay: Intrinsic clearance in human hepatocytes; format: ADME, cell-based
[13] = Fraction unbound in Han Wistar rat brain at 5 uM by equilibrium dialysis method; format: ADME, tissue-based; conditions: Han Wistar, brain
Mus musculus [14] = assay: Toxicity in PC9 cells expressing EGFR exon19 deletion mutant xenografted mouse assessed as loss of body weight at 15 mg/kg, qd; format: organism-based, PC-9; conditions: in vivo
Cytochrome P450 1A2 = Cytochrome P450 1A2 (Homo sapiens, UniProt P05177); assay: Inhibition of CYP1A2 (unknown origin); format: ADME
Sequence of Cytochrome P450 1A2 (P05177 whole entry): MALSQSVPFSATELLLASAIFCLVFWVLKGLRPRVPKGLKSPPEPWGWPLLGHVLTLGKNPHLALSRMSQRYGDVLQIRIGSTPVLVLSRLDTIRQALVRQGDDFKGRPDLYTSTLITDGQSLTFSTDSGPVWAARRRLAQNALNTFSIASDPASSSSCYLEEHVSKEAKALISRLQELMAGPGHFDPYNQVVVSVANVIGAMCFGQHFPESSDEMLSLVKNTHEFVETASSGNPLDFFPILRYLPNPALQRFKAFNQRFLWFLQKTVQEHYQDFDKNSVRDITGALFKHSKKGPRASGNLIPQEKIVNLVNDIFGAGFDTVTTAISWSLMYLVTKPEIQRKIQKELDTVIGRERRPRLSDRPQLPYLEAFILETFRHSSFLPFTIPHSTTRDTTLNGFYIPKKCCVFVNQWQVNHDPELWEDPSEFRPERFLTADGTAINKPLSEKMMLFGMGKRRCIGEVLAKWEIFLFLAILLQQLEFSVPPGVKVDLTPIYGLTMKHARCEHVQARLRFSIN

PC-9 [15] = assay: Antitumor activity against human PC9 cells expressing EGFR exon19 deletion mutant xenografted in mouse assessed as decrease in tumor area in brain at 7.5 mg/kg, qd; format: functional, organism-based
[16] = Ratio of unbound AUC (0 to 7 hrs) in CSF to blood of Han Wistar rat at 2 mg/kg, po by LC-MS/MS analysis; format: ADME, organism-based; conditions: Han Wistar, CSF and blood
Cytochrome P450 2B6 = Cytochrome P450 2B6 (Homo sapiens, UniProt P20813); assay: Inhibition of CYP2B6 (unknown origin); format: ADME
[17] = Oral bioavailability in Han Wistar rat at 2 mg/kg; format: ADME, organism-based; conditions: Han Wistar, in vivo
[18] = AUC(0 to 24 hrs) in beagle dog at 1 mg/kg, iv; format: ADME, organism-based, Canis lupus familiaris; parameters: dose 1 mg/kg, time < 24 hr, route intravenous; conditions: in vivo
[19] = target: T2, Proto-oncogene tyrosine-protein kinase Src (Homo sapiens, UniProt P12931); assay: Inhibition of recombinant Src (unknown origin) at 1 uM after 40 mins by scintillation counting analysis in presence of [gamma33P]-ATP
T2 sequence (P12931 2-536 limits assumed): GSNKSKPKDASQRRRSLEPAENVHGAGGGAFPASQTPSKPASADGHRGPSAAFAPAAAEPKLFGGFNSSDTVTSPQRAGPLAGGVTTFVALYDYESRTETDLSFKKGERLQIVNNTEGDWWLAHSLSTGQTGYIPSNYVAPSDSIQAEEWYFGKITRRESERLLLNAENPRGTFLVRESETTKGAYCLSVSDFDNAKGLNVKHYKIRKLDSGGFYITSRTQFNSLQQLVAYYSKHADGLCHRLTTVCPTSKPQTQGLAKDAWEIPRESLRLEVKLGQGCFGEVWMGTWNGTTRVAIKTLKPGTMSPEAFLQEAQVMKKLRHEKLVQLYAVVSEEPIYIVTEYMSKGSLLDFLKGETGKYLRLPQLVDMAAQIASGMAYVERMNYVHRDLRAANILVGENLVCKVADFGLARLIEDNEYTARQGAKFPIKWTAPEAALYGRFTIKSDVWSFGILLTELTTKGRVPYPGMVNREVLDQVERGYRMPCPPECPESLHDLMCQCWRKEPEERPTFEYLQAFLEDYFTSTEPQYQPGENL

[20] = Elimination half life in Han Wistar rat at 1 mg/kg, iv; format: ADME, organism-based; conditions: Han Wistar, in vivo, read-out: beta t1/2 (converted)
[21] = Permeability from apical to basolateral side in MDCK2-MDR1 cells; format: ADME, cell-based, Canis lupus familiaris, MDCK-II; conditions: dog, MDCK-MDR1
[22] = target: Tyrosine-protein kinase Lck (Homo sapiens) (UniProt P06239); assay: Inhibition of recombinant Lck (unknown origin) at 1 uM after 40 mins by scintillation counting analysis in presence of [gamma33P]-ATP
[23] = target: Tyrosine-protein kinase Lyn (Homo sapiens) (UniProt P07948); assay: Inhibition of recombinant Lyn (unknown origin) at 1 uM after 40 mins by scintillation counting analysis in presence of [gamma33P]-ATP
Sequence of Tyrosine-protein kinase Lyn (Homo sapiens) (P07948 2-512 limits assumed): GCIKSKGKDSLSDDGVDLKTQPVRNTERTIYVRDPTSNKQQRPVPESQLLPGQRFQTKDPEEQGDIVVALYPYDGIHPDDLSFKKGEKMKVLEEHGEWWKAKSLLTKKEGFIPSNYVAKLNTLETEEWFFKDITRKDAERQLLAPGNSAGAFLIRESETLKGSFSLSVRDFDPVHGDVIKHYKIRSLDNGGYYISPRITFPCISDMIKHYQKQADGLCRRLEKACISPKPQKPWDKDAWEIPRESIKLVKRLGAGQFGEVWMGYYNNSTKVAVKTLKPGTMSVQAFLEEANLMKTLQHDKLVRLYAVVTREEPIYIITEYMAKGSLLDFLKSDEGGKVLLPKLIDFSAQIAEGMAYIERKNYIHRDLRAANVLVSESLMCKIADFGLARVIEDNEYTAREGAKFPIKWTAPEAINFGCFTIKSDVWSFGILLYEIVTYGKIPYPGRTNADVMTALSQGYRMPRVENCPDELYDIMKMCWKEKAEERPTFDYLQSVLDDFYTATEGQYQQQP

[24] = target: T1, Vascular endothelial growth factor receptor 2; assay: Inhibition of recombinant KDR (unknown origin) after 40 mins by scintillation counting analysis in presence of [gamma33P]-ATP
[25] = Volume of distribution at steady state in beagle dog at 1 mg/kg, iv; format: ADME, organism-based, Canis lupus familiaris; conditions: in vivo, read-out: Vdss
NCI-H838 = assay: Antiproliferative against human NCI-H838 cells expressing EGFR wild-type after 72 hrs by MTS assay; format: functional, cell-based; conditions: NCI-H838, 72 h
[26] = Elimination half life in Han Wistar rat at 2 mg/kg, po; format: ADME, organism-based; conditions: in vivo, read-out: beta t1/2 (converted)
Cytochrome P450 3A4 = Cytochrome P450 3A4 (Homo sapiens, UniProt P08684); assay: Inhibition of CYP3A4 (unknown origin); format: ADME
Sequence of Cytochrome P450 3A4 (P08684 whole entry): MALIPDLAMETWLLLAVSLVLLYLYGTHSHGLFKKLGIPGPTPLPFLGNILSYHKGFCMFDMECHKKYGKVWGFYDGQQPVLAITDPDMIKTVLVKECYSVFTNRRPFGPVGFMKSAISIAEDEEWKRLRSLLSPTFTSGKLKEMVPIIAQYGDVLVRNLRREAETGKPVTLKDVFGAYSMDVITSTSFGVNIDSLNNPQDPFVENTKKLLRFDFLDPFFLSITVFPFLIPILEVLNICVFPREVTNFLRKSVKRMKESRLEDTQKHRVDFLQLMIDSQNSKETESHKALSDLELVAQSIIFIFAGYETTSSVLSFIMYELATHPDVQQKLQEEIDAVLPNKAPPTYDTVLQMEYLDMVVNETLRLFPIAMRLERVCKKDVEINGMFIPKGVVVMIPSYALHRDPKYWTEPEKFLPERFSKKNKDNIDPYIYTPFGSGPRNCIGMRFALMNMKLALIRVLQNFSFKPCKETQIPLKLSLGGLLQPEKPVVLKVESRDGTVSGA

[27] = Clearance in beagle dog at 1 mg/kg, iv; format: ADME, organism-based, Canis lupus familiaris; conditions: in vivo
PC-9 [28] = assay: Antitumor activity against human PC9 cells expressing EGFR exon19 deletion mutant xenografted in mouse assessed as decrease in tumor area in brain at 15 mg/kg, qd; format: functional, organism-based
[29] = target: Ephrin type-B receptor 4 (Homo sapiens) (UniProt P54760); assay: Inhibition of recombinant EpHB4 (unknown origin) at 1 uM after 40 mins by scintillation counting analysis in presence of [gamma33P]-ATP
[30] = Ratio of fraction unbound in brain to plasma of cynomolgus monkey at 155 MBq, iv by positron emission tomography; format: ADME, organism-based, Macaca fascicularis
[31] = target: Tyrosine-protein kinase Fyn (Homo sapiens) (UniProt P06241); assay: Inhibition of recombinant Fyn (unknown origin) at 1 uM after 40 mins by scintillation counting analysis in presence of [gamma33P]-ATP
Sequence of Tyrosine-protein kinase Fyn (Homo sapiens) (P06241 2-537 limits assumed): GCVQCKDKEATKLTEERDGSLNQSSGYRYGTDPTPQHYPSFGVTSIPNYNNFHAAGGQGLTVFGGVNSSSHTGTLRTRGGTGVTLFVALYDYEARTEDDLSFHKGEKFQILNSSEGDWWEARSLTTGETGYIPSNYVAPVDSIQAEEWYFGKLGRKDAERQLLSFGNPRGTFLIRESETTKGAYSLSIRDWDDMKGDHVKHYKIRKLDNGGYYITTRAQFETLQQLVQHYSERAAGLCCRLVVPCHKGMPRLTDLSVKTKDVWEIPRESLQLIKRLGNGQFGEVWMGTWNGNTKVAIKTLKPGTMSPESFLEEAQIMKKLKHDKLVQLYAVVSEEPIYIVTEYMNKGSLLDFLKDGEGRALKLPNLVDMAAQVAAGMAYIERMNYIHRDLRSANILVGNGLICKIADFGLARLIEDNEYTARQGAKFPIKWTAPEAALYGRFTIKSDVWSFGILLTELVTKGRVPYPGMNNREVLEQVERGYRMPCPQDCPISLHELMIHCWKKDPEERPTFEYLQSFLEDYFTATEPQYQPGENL

[32] = Elimination half life in beagle dog at 2 mg/kg, po; format: ADME, organism-based, Canis lupus familiaris; conditions: in vivo, read-out: beta t1/2 (converted)
[33] = Volume of distribution at steady state in Han Wistar rat at 1 mg/kg, iv; format: ADME, organism-based; conditions: Han Wistar, in vivo, read-out: Vdss
[34] = Tmax in beagle dog at 2 mg/kg, po; format: ADME, organism-based, Canis lupus familiaris; conditions: in vivo
[35] = AUC(0 to 24 hrs) in beagle dog at 2 mg/kg, po; format: ADME, organism-based, Canis lupus familiaris; parameters: dose 2 mg/kg, time < 24 hr, route oral; conditions: in vivo
[36] = Ratio of unbound AUC (0 to 7 hrs) in brain to blood of Han Wistar rat at 2 mg/kg, po by LC-MS/MS analysis; format: ADME, organism-based; conditions: Han Wistar, brain and blood, read-out: K(p,uu,brain)
Cytochrome P450 3A5 = Cytochrome P450 3A5 (Homo sapiens, UniProt P20815); assay: Inhibition of CYP3A5 (unknown origin); format: ADME
Cytochrome P450 2C19 = Cytochrome P450 2C19 (Homo sapiens, UniProt P33261); assay: Inhibition of CYP2C19 (unknown origin); format: ADME
Sequence of Cytochrome P450 2C19 (P33261 whole entry): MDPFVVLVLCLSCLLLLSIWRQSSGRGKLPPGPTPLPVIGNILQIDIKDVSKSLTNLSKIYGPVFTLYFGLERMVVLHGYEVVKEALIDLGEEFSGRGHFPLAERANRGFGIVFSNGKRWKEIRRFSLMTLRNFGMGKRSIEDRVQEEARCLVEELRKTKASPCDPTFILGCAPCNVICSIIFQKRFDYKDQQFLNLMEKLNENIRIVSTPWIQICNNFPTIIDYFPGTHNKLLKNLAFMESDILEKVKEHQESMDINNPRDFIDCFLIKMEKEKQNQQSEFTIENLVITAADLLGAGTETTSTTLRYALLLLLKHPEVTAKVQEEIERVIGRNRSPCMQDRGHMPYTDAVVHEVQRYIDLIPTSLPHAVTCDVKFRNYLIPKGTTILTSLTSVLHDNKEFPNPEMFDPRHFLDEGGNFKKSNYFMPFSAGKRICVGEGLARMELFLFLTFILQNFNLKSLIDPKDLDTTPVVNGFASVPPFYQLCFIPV

[37] = target: T2, Proto-oncogene tyrosine-protein kinase Src; assay: Inhibition of recombinant Src (unknown origin) after 40 mins by scintillation counting analysis in presence of [gamma33P]-ATP
[38] = Fraction unbound in Han Wistar rat blood at 5 uM by equilibrium dialysis method; format: ADME, tissue-based; conditions: Han Wistar
PC-9 [39] = assay: Antitumor activity against human PC9 cells expressing EGFR exon19 deletion mutant xenografted in mouse assessed as tumor regression at 15 mg/kg, qd measured after 4 weeks; format: functional, organism-based
[40] = target: Tyrosine-protein kinase Yes (Homo sapiens) (UniProt P07947); assay: Inhibition of recombinant Yes (unknown origin) at 1 uM after 40 mins by scintillation counting analysis in presence of [gamma33P]-ATP
Sequence of Tyrosine-protein kinase Yes (Homo sapiens) (P07947 2-543 limits assumed): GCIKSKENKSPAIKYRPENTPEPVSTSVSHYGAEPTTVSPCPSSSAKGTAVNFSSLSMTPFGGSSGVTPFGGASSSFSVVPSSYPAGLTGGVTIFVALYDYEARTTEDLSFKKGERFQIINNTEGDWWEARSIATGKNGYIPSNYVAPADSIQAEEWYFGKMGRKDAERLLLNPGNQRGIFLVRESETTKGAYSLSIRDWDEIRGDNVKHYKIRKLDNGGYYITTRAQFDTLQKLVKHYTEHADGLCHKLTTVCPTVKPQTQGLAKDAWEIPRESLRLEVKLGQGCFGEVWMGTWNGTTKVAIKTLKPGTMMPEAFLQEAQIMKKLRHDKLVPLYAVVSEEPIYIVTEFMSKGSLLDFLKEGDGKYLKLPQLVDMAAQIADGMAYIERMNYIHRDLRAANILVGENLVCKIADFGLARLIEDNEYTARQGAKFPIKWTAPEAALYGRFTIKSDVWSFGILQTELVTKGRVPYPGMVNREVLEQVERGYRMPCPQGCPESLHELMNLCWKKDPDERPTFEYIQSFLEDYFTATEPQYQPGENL

PC-9 [41] = assay: Antitumor activity against human PC9 cells expressing EGFR exon19 deletion mutant xenografted in mouse assessed as modulation of pEGFR expression in brain at 15 mg/kg administered as single dose measured after 1 hr by immunohistochemical analysis; format: functional, organism-based
[42] = AUC (0 to 7 hrs) in Han Wistar rat brain at 2 mg/kg, po by LC-MS/MS analysis; format: ADME, organism-based; parameters: dose 2 mg/kg, time < 7 hr, route oral; conditions: Han Wistar, brain
Mus musculus [43] = assay: Toxicity in PC9 cells expressing EGFR exon19 deletion mutant xenografted mouse assessed as loss of body weight at 7.5 mg/kg, qd; format: organism-based, PC-9; conditions: in vivo
[44] = Antiproliferative against human PC9 cells expressing EGFR exon19 deletion mutant after 72 hrs by MTS assay; format: functional, cell-based; conditions: PC-9, 72 h
[45] = AUC(0 to 24 hrs) in Han Wistar rat at 2 mg/kg, po; format: ADME, organism-based; parameters: dose 2 mg/kg, time < 24 hr, route oral; conditions: Han Wistar, in vivo
[46] = Clearance in Han Wistar rat at 1 mg/kg, iv; format: ADME, organism-based; conditions: in vivo

SMILES: COc1cc2ncnc(Nc3cccc(Cl)c3F)c2cc1OC(=O)N1CCN(C)C[C@H]1C [AZD-3759]
- IC50 [1]: 0.007 µM
- IC50 (Cytochrome P450 2C8): > 50 µM
- IC50 (Cytochrome P450 2C9): > 50 µM
- Cmax [2]: 698 nM
- IC50 (D(2) dopamine receptor): 0.797 µM
- Cmax [3]: 580 nM
- AUC(0-t) at 7 h [4]: 0.076 µM·h
- IC50 (Cytochrome P450 2D6): > 50 µM
- Activity (PC-9 [5]): Dose-dependent effect
- BPR [6]: 0.5
- AUC(0-t) at 7 h [7]: 1.23 µM·h
- inhibition in vivo at 7.5 mg/kg [8]: 78%
- bioavailability [9]: 90.2%
- inhibition [10]: 57%
- inhibition [11]: 62%
- half-life [12]: 6.2 h
- CLH (Hepatocyte): 11.4 µL/min
- fraction unbound at 5 µM [13]: 0.02
- Activity (Mus musculus [14]): < 20%
- IC50 (Cytochrome P450 1A2): > 50 µM
- inhibition (PC-9 [15]): Active
- Kp uu [16]: 1.3
- IC50 (Cytochrome P450 2B6): > 50 µM
- bioavailability [17]: 91%
- AUC(0-t) at 24 h [18]: 2.56 µM·h
- inhibition [19]: 69%
- half-life [20]: 4.1 h
- Papp A→B [21]: 36 ×10⁻⁶ cm/s
- inhibition [22]: 61%
- inhibition [23]: 74%
- IC50 [24]: 0.156 µM
- Vd [25]: 6.4 L/kg
- IC50 (NCI-H838): 21.6 µM
- half-life [26]: 4.3 h
- IC50 (Cytochrome P450 3A4): > 50 µM
- clearance [27]: 14 mL/min/kg
- inhibition (PC-9 [28]): Active
- inhibition [29]: 83%
- BPR [30]: 0.53
- inhibition [31]: 58%
- half-life [32]: 5.5 h
- Vd [33]: 5.2 L/kg
- Tmax [34]: 0.5 h
- AUC(0-t) at 24 h [35]: 4.62 µM·h
- Kp uu [36]: 1.3
- IC50 (Cytochrome P450 3A5): > 50 µM
- IC50 (Cytochrome P450 2C19): > 50 µM
- IC50 [37]: 0.622 µM
- fraction unbound at 5 µM [38]: 0.047
- Activity (PC-9 [39]): Active
- inhibition [40]: 87%
- Activity (PC-9 [41]): Active
- AUC(0-t) at 7 h [42]: 3.69 µM·h
- Activity (Mus musculus [43]): < 20%
- IC50 [44]: 0.0077 µM
- AUC(0-t) at 24 h [45]: 3.8 µM·h
- clearance [46]: 17 mL/min/kg
